Literature values as cited in US20220016054A1, “EPINEPHRINE PARENTERAL FORMULATIONS” (Somerset Therapeutics LLC, priority 2020, published 2022).

Key:
[1] = system: beta-adrenergic receptors
[2] = fraction of that of l-epinephrine

SMILES | beta-adrenergic activity [1] | pressor effect relative to l-epinephrine [2]
CNCC(=O)c1ccc(O)c(O)c1 [adrenalone] | little if any beta-adrenergic activity | –
CNC[C@H](O)c1ccc(O)c(O)c1 [d-epinephrine] | – | about one-fifteenth
